Reference: patent publication US20260184687A1, “DIHYDROINDENE DERIVATIVES AS MALT1 INHIBITORS” (C4X Discovery Limited, priority 2022, published 2026)

How the values were obtained:
[1] = molecular target: MALT1-GS-Ub (6-His-hMALT-1 residues 339-715 fused to ubiquitin) (Homo sapiens, UniProt Q9UDY8); assay: biochemical;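 also: in vitro MALT1 protease assay: enzyme preincubated with compound 30 min at room temperature, then cleavage of fluorogenic Ac-LVSR-AMC substrate (100 µM) followed by fluorescence every 15 min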
FL hMALT1 enzyme = molecular target: T1, FL hMALT1 enzyme (Homo sapiens, UniProt Q9UDY8); assay: biochemical;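 also: Cell-free protease assay: enzyme preincubated with compound 30 min at room temperature, then cleavage of fluorogenic Ac-LVSR-AMC substrate (100 µM) tracked by fluorescence (ex 360/em 460 nm)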
T1 sequence (Q9UDY8 1-824): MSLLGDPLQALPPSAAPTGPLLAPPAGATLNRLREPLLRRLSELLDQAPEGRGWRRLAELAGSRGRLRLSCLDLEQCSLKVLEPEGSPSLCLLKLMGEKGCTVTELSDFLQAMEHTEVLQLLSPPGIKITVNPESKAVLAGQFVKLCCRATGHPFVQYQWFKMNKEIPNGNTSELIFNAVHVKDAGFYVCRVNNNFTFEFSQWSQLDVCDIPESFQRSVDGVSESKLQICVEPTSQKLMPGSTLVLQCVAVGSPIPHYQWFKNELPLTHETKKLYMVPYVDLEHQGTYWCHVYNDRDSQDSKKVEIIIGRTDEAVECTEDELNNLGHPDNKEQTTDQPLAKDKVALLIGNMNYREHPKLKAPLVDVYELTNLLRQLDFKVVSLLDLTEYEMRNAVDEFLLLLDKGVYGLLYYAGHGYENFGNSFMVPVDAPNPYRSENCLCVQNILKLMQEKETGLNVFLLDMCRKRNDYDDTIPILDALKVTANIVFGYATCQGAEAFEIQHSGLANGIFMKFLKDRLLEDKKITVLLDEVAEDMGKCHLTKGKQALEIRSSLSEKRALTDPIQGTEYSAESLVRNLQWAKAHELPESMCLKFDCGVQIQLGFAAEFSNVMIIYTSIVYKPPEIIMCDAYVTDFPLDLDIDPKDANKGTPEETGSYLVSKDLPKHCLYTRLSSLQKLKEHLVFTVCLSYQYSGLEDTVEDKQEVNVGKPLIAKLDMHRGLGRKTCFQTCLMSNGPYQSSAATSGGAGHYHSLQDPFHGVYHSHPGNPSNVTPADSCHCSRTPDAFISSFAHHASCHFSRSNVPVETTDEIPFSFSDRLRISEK
Method: MALT1 protease activity was assessed in vitro by measuring the cleavage of a fluorogenic tetrapeptide substrate.
For a higher sensitivity assay, commercially available FL hMALT1 enzyme (Abcam, 1-10 nM) was incubated with substrate (Ac-LVSR-AMC, 100 μM) in reaction buffer comprising 50 mM HEPES (pH7.0), 25 mM KCl, 0.1% (v/v) CHAPS, 1 mM TCEP and 0.7 M sodium citrate.
Test compounds dissolved in DMSO were dispensed into assay plates (384-well, black, shallow ProxiPlates). 7 μl enzyme solution was added and incubated at room temperature for 30 minutes to allow compound binding to occur. 2 μl substrate solution was then added and the fluorescence (excitation 360 nm, emission 460 nm) read every 15 minutes using a suitable plate reader. Final assay DMSO concentration was 1%. […] IC50 values were calculated using GraphPad Prism using a 4-parameter non-linear regression curve fit.

[2] = system: IL-2 release from stimulated Jurkat cells; assay: Human IL-2 Release Phenotypic Assay (Assay 3); type: cell-based; details: Jurkat cells (clone E6-1), 200 ng/mL PMA + 300 ng/mL ionomycin, IL-2 by ELISA
Outline: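 Jurkat E6-1 cells in RPMI1640/10% FBS were seeded at 50 000 cells/well and incubated overnight at 37° C. Half-log compound dilutions (0.5% final DMSO) were added for 30 min, then cells were stimulated with 200 ng/mL PMA + 300 ng/mL ionomycin for 48 h. IC50 came from a 4-parameter non-linear regression fit.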

Sequence of MALT1-GS-Ub (6-His-hMALT-1 residues 339-715 fused to ubiquitin) (Q9UDY8 with tags, fused parts or gaps limits assumed): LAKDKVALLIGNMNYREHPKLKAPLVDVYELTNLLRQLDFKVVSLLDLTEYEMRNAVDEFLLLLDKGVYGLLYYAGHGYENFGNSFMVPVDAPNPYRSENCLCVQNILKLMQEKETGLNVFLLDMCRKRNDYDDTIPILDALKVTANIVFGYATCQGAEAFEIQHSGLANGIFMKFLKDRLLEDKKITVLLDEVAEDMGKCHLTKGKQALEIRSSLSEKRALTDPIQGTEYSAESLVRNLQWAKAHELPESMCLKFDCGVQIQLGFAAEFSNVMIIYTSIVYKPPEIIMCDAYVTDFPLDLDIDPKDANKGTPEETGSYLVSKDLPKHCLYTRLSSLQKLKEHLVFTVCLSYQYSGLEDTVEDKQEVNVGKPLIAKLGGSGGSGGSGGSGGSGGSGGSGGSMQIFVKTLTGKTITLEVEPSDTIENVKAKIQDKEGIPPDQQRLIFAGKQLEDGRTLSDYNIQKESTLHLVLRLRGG

IC50 [1] [nM] | IC50 (FL hMALT1 enzyme) [nM] | IC50 ([2]; Homo sapiens, Jurkat, 48 h) [nM] | IC50 ([2]; 48 hours) [nM] | Compound
11000 | > 3000 | – | – | CN(C(=O)C1CNC1)C(c1ccc(NC2Cc3ccccc3C2(C)C)cn1)C(F)(F)F (single isomer, unassigned) [Example 86, N-(1-(5-((1,1-Dimethyl-2,3-dihydro-1H-inden-2-yl)amino)pyridin-2-yl)-2,2,2-trifluoroethyl)-N-methylazetidine-3-carboxamide]
81000 | > 3000 | – | – | CN1CC(C(=O)N(C)C(c2ccc(NC3Cc4ccccc4C3(C)C)cn2)C(F)(F)F)C1 (single isomer, unassigned) [Example 90, N-(1-(5-((1,1-Dimethyl-2,3-dihydro-1H-inden-2-yl)amino)pyridin-2-yl)-2,2,2-trifluoroethyl)-N,1-dimethylazetidine-3-carboxamide]
2710 | – | – | – | CN(C(=O)OC1CN(C(=O)OC(C)(C)C)C1)[C@@H](c1ccc(NC2Cc3ccccc3C2(C)C)cc1)C(F)(F)F (stereo partly drawn) [Example 59, tert-Butyl 3-((((1S)-1-(4-((1,1-dimethyl-2,3-dihydro-1H-inden-2-yl)amino)phenyl)-2,2,2-trifluoroethyl)(methyl)carbamoyl)oxy)azetidine-1-carboxylate]
26000 | > 3000 | – | – | CN(C(=O)c1cc[nH]c(=O)c1)C(c1ccc(NC2Cc3ccccc3C2(C)C)cn1)C(F)(F)F (single isomer, unassigned) [Example 99, N-(1-(5-((1,1-Dimethyl-2,3-dihydro-1H-inden-2-yl)amino)pyridin-2-yl)-2,2,2-trifluoroethyl)-N-methyl-2-oxo-1,2-dihydropyridine-4-carboxamide]
– | 230 | 430 | – | CN(C(=O)[C@H]1C[C@H](N(C)C)C1)[C@@H](c1ccc(NC2Cc3ccccc3C2(C)C)cn1)C(F)(F)F (single isomer, unassigned) [Example 112]
– | 27 | 250 | – | CN(C(=O)[C@H]1C[C@@]2(COC(=O)N2)C1)[C@@H](c1ccc(NC2Cc3ccccc3C2(C)C)cn1)C(F)(F)F (single isomer, unassigned) [Example 208]
– | 20 | 170 | – | CN(C(=O)C12CC(NS(C)(=O)=O)(C1)C2)[C@@H](c1ccc(N[C@H]2Cc3ccccc3C2(C)C)cn1)C(F)(F)F [Example 233, N—((S)-1-(5-(((S)-1,1-dimethyl-2,3-dihydro-1H-inden-2-yl)amino)pyridin-2-yl)-2,2,2-trifluoroethyl)-N-methyl-3-(methylsulfonamido)bicyclo[1.1.1]pentane-1-carboxamide]
– | 32 | 220 | – | CN(C(=O)C1CCS(=O)(=O)CC1)[C@@H](c1ccc(NC2Cc3ccc(F)c(Cl)c3C2)cn1)C(F)(F)F (single isomer, unassigned) [Example 265]
– | 210 | 1800 | – | CN1CCCC(C(=O)N(C)[C@@H](c2ccc(NC3Cc4ccccc4C3(C)C)cn2)C(F)(F)F)C1 (single isomer, unassigned) [Example 129]
– | 240 | – | 510 | CN(C(=O)[C@H]1C[C@H](N(C)C)C1)[C@@H](c1ccc(NC2Cc3ccccc3C2(C)C)nc1)C(F)(F)F (single isomer, unassigned) [Example 115]
– | 33 | – | 63 | CN(C(=O)C1CN(C(=O)C2CCOC2)C1)[C@@H](c1ccc(NC2Cc3ccc(Cl)c(Cl)c3C2)cn1)C(F)(F)F (single isomer, unassigned) [Example 353]
930 | – | – | – | CN(C(=O)c1cnon1)[C@@H](c1ccc(NC2Cc3ccccc3C2(C)C)cc1)C(F)(F)F (single isomer, unassigned) [Example 51]
– | 42 | 300 | – | CNC(=O)C12CC(C(=O)N(C)[C@@H](c3ccc(N[C@H]4Cc5ccccc5C4(C)C)cn3)C(F)(F)F)(C1)C2 [Example 185, N^1—((S)-1-(5-(((S)-1,1-Dimethyl-2,3-dihydro-1H-inden-2-yl)amino)pyridin-2-yl)-2,2,2-trifluoroethyl)-N^1,N^3-dimethylbicyclo[1.1.1]pentane-1,3-dicarboxamide]
– | 250 | – | 1370 | CN1CCC(C(=O)N(C)[C@@H](c2ccc(NC3Cc4ccccc4C3(C)C)cn2)C(F)(F)F)CC1 (single isomer, unassigned) [Example 132]
– | 33 | 150 | – | CN(C(=O)C1COCC(=O)N1)[C@@H](c1ccc(NC2Cc3ccccc3C2(C)C)cn1)C(F)(F)F (single isomer, unassigned) [Example 164]
– | 91 | – | 3000 | CCN(C(=O)C1CCS(=O)(=O)CC1)[C@@H](c1ccc(NC2Cc3ccccc3C2(C)C)cn1)C(F)(F)F (single isomer, unassigned) [Example 189]
– | 64 | – | 770 | CN(C(=O)[C@H]1C[C@@]2(CCN2C)C1)[C@@H](c1ccc(NC2Cc3ccccc3C2(C)C)cn1)C(F)(F)F (single isomer, unassigned) [Example 157]
– | 160 | – | 710 | CN(C(=O)C1CNC(=O)CO1)[C@@H](c1ccc(NC2Cc3ccccc3C2(C)C)cn1)C(F)(F)F (single isomer, unassigned) [Example 134]
– | 16 | 220 | – | CN(C(=O)[C@H]1CCC(=O)NC1)[C@@H](c1ccc(NC2Cc3ccc(Cl)c(C4CC4)c3C2)cn1)C(F)(F)F (single isomer, unassigned) [Example 330]
– | 81 | 270 | – | CN(C(=O)C1CCS(=O)(=O)CC1)[C@@H](c1ccc(NC2Cc3cc(Cl)cc(F)c3C2)cn1)C(F)(F)F (single isomer, unassigned) [Example 270]
– | 85 | 490 | – | CN(C(=O)C1CCS(=O)(=O)CC1)[C@@H](c1ccc(NC2Cc3ccc(Br)cc3C2)cn1)C(F)(F)F (single isomer, unassigned) [Example 284]
– | 170 | – | 1720 | CN(C(=O)[C@H]1C[C@@]2(CCN2C)C1)[C@@H](c1ccc(NC2Cc3ccccc3C2(C)C)cn1)C(F)(F)F (single isomer, unassigned) [Example 156]
– | 73 | 290 | – | CN(C(=O)C1CCS(=O)(=O)CC1)[C@@H](c1ccc(N[C@H]2Cc3ccc(Cl)cc3C2)cn1)C(F)(F)F (single isomer, unassigned) [Example 199]
– | 39 | – | 250 | CN1C(=O)CCC1C(=O)N(C)[C@@H](c1ccc(N[C@H]2Cc3ccccc3C2(C)C)cn1)C(F)(F)F (single isomer, unassigned) [Example 226]
– | 54 | – | 810 | CN(C(=O)C1CC2(CNC(=O)OC2)C1)[C@@H](c1ccc(NC2Cc3ccccc3C2(C)C)nc1)C(F)(F)F (single isomer, unassigned) [Example 175]
– | 67 | – | 490 | CN(C(=O)[C@H]1C[C@H](N(C)C)C1)[C@@H](c1ccc(NC2Cc3ccccc3C2(C)C)cn1)C(F)(F)F (single isomer, unassigned) [Example 113]
– | 19 | 130 | – | Cc1c(Cl)ccc2c1CC(Nc1ccc([C@H](N(C)C(=O)C3CCS(=O)(=O)CC3)C(F)(F)F)nc1)C2 (single isomer, unassigned) [Example 372]
– | 45 | 300 | – | CN(C(=O)C1CCS(=O)(=O)CC1)[C@@H](c1ccc(NC2Cc3ccc(Cl)cc3C2)nc1)C(F)(F)F (single isomer, unassigned) [Example 289]
– | 71 | 490 | – | CC(=O)N[C@H]1CC[C@@H](C(=O)N(C)[C@@H](c2ccc(N[C@H]3Cc4ccccc4C3(C)C)cn2)C(F)(F)F)C1 [Example 172, (1R,3S)-3-Acetamido-N—((S)-1-(5-(((S)-1,1-dimethyl-2,3-dihydro-1H-inden-2-yl)amino)pyridin-2-yl)-2,2,2-trifluoroethyl)-N-methylcyclopentane-1-carboxamide]

Compound | IC50 [1] [nM] | IC50 (FL hMALT1 enzyme) [nM] | IC50 ([2]; Homo sapiens, Jurkat, 48 h) [nM] | IC50 ([2]; 48 hours) [nM]
CN(C(=O)C1CN2CCC1CC2)[C@@H](c1ccc(NC2Cc3ccccc3C2(C)C)cn1)C(F)(F)F (single isomer, unassigned) [Example 141] | – | 210 | – | 1230
CN(C(=O)C1CN2CCC1CC2)[C@@H](c1ccc(NC2Cc3ccccc3C2(C)C)cn1)C(F)(F)F (single isomer, unassigned) [Example 140] | – | 180 | 1270 | –
